Source: patent US20260167632A1, “NICOTINAMIDE DERIVATIVES FOR USE IN TREATING DISORDERS ASSOCIATED WITH KCNK13 ACTIVITY” (Cerevance, Inc., priority 2022, published 2026)

What follows are compounds tested against T1, human KCNK13 (Homo sapiens, UniProt Q9HB14) (assay: KCNK13 antagonist activity, thallium flux FLIPR assay in HEK 293 cells stably expressing human KCNK13). Conditions: HEK 293 cells stably expressing human KCNK13, Tl+ sensitive dye, compound 15 min before thallium sulfate, ten point curves; read-out: hKCNK13 IC50.
T1 construct: expressed in transfected cells
T1 sequence (Q9HB14 1-408): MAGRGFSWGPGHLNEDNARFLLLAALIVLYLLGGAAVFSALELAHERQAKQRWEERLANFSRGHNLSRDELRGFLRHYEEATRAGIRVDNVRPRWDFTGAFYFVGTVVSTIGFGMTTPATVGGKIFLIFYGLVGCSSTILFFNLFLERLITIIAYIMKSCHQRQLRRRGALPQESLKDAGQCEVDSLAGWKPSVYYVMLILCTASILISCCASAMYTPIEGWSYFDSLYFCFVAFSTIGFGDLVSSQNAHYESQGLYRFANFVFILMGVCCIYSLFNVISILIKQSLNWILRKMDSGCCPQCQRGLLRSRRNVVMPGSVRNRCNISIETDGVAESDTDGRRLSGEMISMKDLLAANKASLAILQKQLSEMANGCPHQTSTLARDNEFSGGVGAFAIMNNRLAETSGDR
Format: cell-based
Experimental: 4. Biological Efficacy of Compounds of the Invention
KCNK13 antagonist activity was determined by measuring changes in intracellular Thallium (Tl^+) concentrations using a Tl^+ sensitive fluorescent dye. The changes in fluorescent signal were monitored by Fluorescent Imaging Plate Reader (FLIPR™) technology available from Molecular Devices, LLC, US. KCNK13 mediated increases in intracellular Tl^+ concentration were readily detected by addition of a thallium sulfate Stimulus. 24 hours prior to the assay, human embryonic kidney 293 cells (HEK 293 cells) stably expressing human KCNK13 were seeded in cell culture medium in PDL coated black, clear-bottom 384-well plates (commercially available from Corning Inc., 356663) and grown overnight at 37° C., […]. On the day of the assay, cell culture media was removed and cells were loaded with potassium dye (commercially sold by Molecular Devices, LLC, US, R8222) for 1 hour at room temperature in the dark. Test compounds (at 10 point half log concentration response curves from 100 µM) were added to cells for 15 minutes prior to the addition of thallium sulfate to all wells. The IC50 values were determined from ten point concentration response curves. Curves were generated using the average of two wells for each data point.

IC50 [nM] | Compound
≤ 500 | CN(C(=O)c1cc(Cl)cnc1OC(F)F)C1COc2cc(F)ccc21 (stereo not drawn) [Example 77, 5-chloro-2-(difluoromethoxy)-N-(6-fluoro-2,3-dihydrobenzofuran-3-yl)-N-methylnicotinamide]
≤ 200 | COc1ncc(Cl)cc1C(=O)N(C)C1CCc2ccc(F)cc21 (single isomer, unassigned) [Example 21, 5-chloro-N-(6-fluoro-2,3-dihydro-1H-inden-1-yl)-2-methoxy-N-methylnicotinamide]
≤ 200 | N#Cc1cc(F)ccc1S(=O)(=O)N1CCOc2ccc(F)cc2C1 [Example 120, 5-fluoro-2-((7-fluoro-2,3-dihydrobenzo[f][1,4]oxazepin-4(5H)-yl)sulfonyl)benzonitrile]
≤ 200 | CN(Cc1cccc(Cl)c1)S(=O)(=O)c1cc(F)cnc1OC(F)F [Example 108, N-(3-chlorobenzyl)-2-(difluoromethoxy)-5-fluoro-N-methylpyridine-3-sulfonamide]
≤ 1000 | COc1ncc(F)cc1C(=O)N(C)C(C)c1cc(F)ccc1C#N (single isomer, unassigned) [Example 62, N-(1-(2-cyano-5-fluorophenyl)ethyl)-5-fluoro-2-methoxy-N-methylnicotinamide]
≤ 1000 | COc1ncc(F)cc1C(=O)N(C)C1COc2cc(F)ccc21 (stereo not drawn) [Example 42, 5-fluoro-N-(6-fluoro-2,3-dihydrobenzofuran-3-yl)-2-methoxy-N-methylnicotinamide]
≤ 500 | COc1ncc(Cl)cc1C(=O)N(C)C1CCc2ccc(F)cc21 (single isomer, unassigned) [Example 20, 5-chloro-N-(6-fluoro-2,3-dihydro-1H-inden-1-yl)-2-methoxy-N-methylnicotinamide]
≤ 1000 | COc1ncc(F)cc1C(=O)N(C)Cc1c(F)cc(F)cc1C#N [Example 61, N-(2-cyano-4,6-difluorobenzyl)-5-fluoro-2-methoxy-N-methylnicotinamide]
≤ 100 | CC(c1cccc(F)c1)N(C)C(=O)c1cc(Cl)cnc1OC(F)F (single isomer, unassigned) [Example 86, 5-chloro-2-(difluoromethoxy)-N-(1-(3-fluorophenyl)ethyl)-N-methylnicotinamide]
≤ 100 | CC(c1cccc(F)c1)N(C)C(=O)c1cc(F)cnc1OC(F)F (single isomer, unassigned) [Example 88, 2-(difluoromethoxy)-5-fluoro-N-(1-(3-fluorophenyl)ethyl)-N-methylnicotinamide]
≤ 500 | COc1ncc(Cl)cc1C(=O)N(C)C1CCc2cccc(C#N)c21 (stereo not drawn) [Example 3, 5-chloro-N-(7-cyano-2,3-dihydro-1H-inden-1-yl)-2-methoxy-N-methylnicotinamide]
≤ 500 | COc1ncc(F)cc1C(=O)N(C)Cc1ccccc1C#N [Example 36, N-(2-cyanobenzyl)-5-fluoro-2-methoxy-N-methylnicotinamide]
≤ 100 | CC(c1ccccc1F)N(C)C(=O)c1cc(F)cnc1OC(F)F (single isomer, unassigned) [Example 71, 2-(difluoromethoxy)-5-fluoro-N-(1-(2-fluorophenyl)ethyl)-N-methylnicotinamide]
≤ 500 | COc1ncc(F)cc1C(=O)N(C)C1CCOc2ccccc21 (single isomer, unassigned) [Example 15, N-(chroman-4-yl)-5-fluoro-2-methoxy-N-methylnicotinamide]
≤ 500 | COc1ncc(F)cc1C(=O)N(C)C1CCOc2ccccc21 (single isomer, unassigned) [Example 14, N-(chroman-4-yl)-5-fluoro-2-methoxy-N-methylnicotinamide]
≤ 200 | Cc1cc(F)cc(CN(C)C(=O)c2cc(Cl)cnc2OC(F)F)c1 [Example 76, 5-chloro-2-(difluoromethoxy)-N-(3-fluoro-5-methylbenzyl)-N-methylnicotinamide]
≤ 5000 | COc1ncc(F)cc1C(=O)N(C)C(C)c1ccc(F)cc1C#N (single isomer, unassigned) [Example 64, N-(1-(2-cyano-4-fluorophenyl)ethyl)-5-fluoro-2-methoxy-N-methylnicotinamide]
≤ 200 | COc1ncc(Cl)cc1S(=O)(=O)N1CCc2ccccc2C1 [Example 52, 2-((5-chloro-2-methoxypyridin-3-yl)sulfonyl)-1,2,3,4-tetrahydroisoquinoline]

IC50 [nM] | Compound
≤ 500 | COc1ncc(Cl)cc1C(=O)N(C)C1CCOc2c(F)cccc21 (single isomer, unassigned) [Example 28, 5-chloro-N-(8-fluorochroman-4-yl)-2-methoxy-N-methylnicotinamide]
≤ 100 | Cc1cccc(CN(C)C(=O)c2cc(Cl)cnc2OC(F)F)c1 [Example 80, 5-chloro-2-(difluoromethoxy)-N-methyl-N-(3-methylbenzyl)nicotinamide]
≤ 500 | CN(Cc1cccc(C#N)c1)C(=O)c1cc(Cl)cnc1OC(F)F [Example 90, 5-chloro-N-(3-cyanobenzyl)-2-(difluoromethoxy)-N-methylnicotinamide]
≤ 500 | CN(Cc1cccc(C(F)(F)F)c1)C(=O)c1cc(Cl)cnc1OC(F)F [Example 82, 5-chloro-2-(difluoromethoxy)-N-methyl-N-(3-(trifluoromethyl)benzyl)nicotinamide]
≤ 1000 | COc1ncc(Cl)cc1C(=O)N(C)Cc1ccc(F)cc1C(F)(F)F [Example 57, 5-chloro-N-(4-fluoro-2-(trifluoromethyl)benzyl)-2-methoxy-N-methylnicotinamide]
≤ 500 | CN(Cc1cccc(F)c1)S(=O)(=O)c1cc(Cl)cnc1OC(F)F [Example 113, 5-chloro-2-(difluoromethoxy)-N-(3-fluorobenzyl)-N-methylpyridine-3-sulfonamide]
≤ 1000 | COc1ncc(Cl)cc1C(=O)N(C)C1CCc2ccc(C#N)cc21 (stereo not drawn) [Example 2, 5-chloro-N-(6-cyano-2,3-dihydro-1H-inden-1-yl)-2-methoxy-N-methylnicotinamide]
≤ 1000 | C[C@H](c1cccc(F)c1)N(C)S(=O)(=O)c1cc(F)cnc1OC(F)F [Example 104, (R)-2-(difluoromethoxy)-5-fluoro-N-(i-(3-fluorophenyl)ethyl)-N-methylpyridine-3-sulfonamide]
≤ 500 | COc1ncc(C)cc1S(=O)(=O)N1CCOc2ccc(F)cc2C1 [Example 53, 7-fluoro-4-((2-methoxy-5-methylpyridin-3-yl)sulfonyl)-2,3,4,5-tetrahydrobenzo[f][1,4]oxazepine]
≤ 5000 | COc1ncc(Cl)cc1C(=O)N(C)C(C)c1ccc(F)cc1C#N (single isomer, unassigned) [Example 66, 5-chloro-N-(1-(2-cyano-4-fluorophenyl)ethyl)-2-methoxy-N-methylnicotinamide]
≤ 500 | COC(=O)c1ccc(F)cc1CN(C)C(=O)c1cc(F)cnc1OC [Example 56, methyl 4-fluoro-2-((5-fluoro-2-methoxy-N-methylnicotinamido)methyl)benzoate]
≤ 500 | COc1ncc(Cl)cc1C(=O)N(C)C1CCc2ccccc21 (single isomer, unassigned) [Example 22, 5-chloro-N-(2,3-dihydro-1H-inden-1-yl)-2-methoxy-N-methylnicotinamide]
≤ 5000 | COc1ncc(Cl)cc1C(=O)N(C)C1COc2cc(F)ccc21 (single isomer, unassigned) [Example 45, 5-chloro-N-(6-fluoro-2,3-dihydrobenzofuran-3-yl)-2-methoxy-N-methylnicotinamide]
≤ 500 | COc1ncc(F)cc1C(=O)N(C)C1CCOc2c(F)cccc21 (single isomer, unassigned) [Example 30, 5-fluoro-N-(8-fluorochroman-4-yl)-2-methoxy-N-methylnicotinamide]
≤ 500 | COc1ncc(Cl)cc1C(=O)N(C)C1CCOc2c(F)cccc21 (single isomer, unassigned) [Example 29, 5-chloro-N-(8-fluorochroman-4-yl)-2-methoxy-N-methylnicotinamide]
≤ 1000 | COc1ncc(Cl)cc1C(=O)N(C)C1COc2cc(F)ccc21 (single isomer, unassigned) [Example 46, 5-chloro-N-(6-fluoro-2,3-dihydrobenzofuran-3-yl)-2-methoxy-N-methylnicotinamide]
≤ 1000 | COc1ncc(F)cc1C(=O)N(C)C1CCOc2c(F)cccc21 (single isomer, unassigned) [Example 31, 5-fluoro-N-(8-fluorochroman-4-yl)-2-methoxy-N-methylnicotinamide]
≤ 1000 | COc1ncc(F)cc1C(=O)N(C)C(C)c1ccc(F)cc1C#N (single isomer, unassigned) [Example 65, N-(1-(2-cyano-4-fluorophenyl)ethyl)-5-fluoro-2-methoxy-N-methylnicotinamide]
